System: 935938-334-R-J1-PDC spheroids with HUVEC/MSC, viability
Assay: Anticancer human tumor 935938-334-R-J1-PDC patient-derived small intestine adenocarcinoma cell line growth inhibition [PI3K]
Settings: for IC50: curve of first compound; for viability, T/C: stronger effect = lower value
From the text: Combinatorial screen of targeted agents with the PI3K inhibitors inavolisib, alpelisib, duvelisib, and copanlisib in multi-cell type tumor spheroids
A high-throughput screen of multi-cell type tumor spheroids was designed to identify active combinations of targeted small molecules and PI3K pathway inhibitors. Complex spheroids include a stromal component modeled by human endothelial cells (HUVEC) and fibroblasts modeled by human mesenchymal stem cells (MSCs). The concentration ranges selected for each drug and investigational agent were based upon clinically achievable concentrations if the clinical Cmax of the agent was known.
Compounds. The drugs and investigational agents: inavolisib (NSC800729), alpelisib (NSC765974), duvelisib (NSC772469), copanlisib (NSC816437), ipatasertib (NSC767898), afuresertib (NSC778305), talazoparib (NSC767125), sapanisertib (NSC764658), selumetinib (NSC741078), tovorafenib (DAY101, NSC766906), vemurafenib (NSC761431), ravoxertinib (NSC781343), sotorasib (NSC818433), MRTX1133 (NSC 836407), abemaciclib (NSC 768073), palbociclib (NSC758247), venetoclax (NSC 766270), SY5609 (NSC837396), enzalutamide (NSC755605), and darolutamide (NSC825331), were obtained from the National Cancer Institute (NCI) Developmental Therapeutics Program Chemical Repository. The FDA-approved anticancer drug set is available from the NCI Developmental Therapeutics Program. […] The stock solutions were prepared in dimethyl sulfoxide (DMSO, Sigma-Aldrich, St. Louis, MO, cat. D2650) at 800-fold the tested concentration and stored at -70 degrees C prior to their use. All drugs and investigational agents were tested over a range starting from a high concentration at or near the clinical Cmax and decreasing in half-log increments. If the clinical Cmax for an agent had not been determined, the highest concentration tested was 10 microM.
Cell Culture. All cells were maintained in an incubator at 37 degrees C and 5% CO2 with 95% humidity. The PDC lines were cultured according to standard operating procedures established by the NCI PDMR (https://pdmr.cancer.gov/sops/default.htm). All PDCs were thawed and cultured in Matrigel-coated flasks prepared with a working solution of 1X Ham's F-12 nutrient mix, without supplementation (Invitrogen, Waltham, MA, cat. 11765054), 100 U/mL penicillin-streptomycin (Invitrogen, cat. 15140122), and 2.5% Matrigel (Corning Inc., Corning, NY, cat. 354248) for the first three passages. The 354836-022-R-J1-PDC, 475296-252-R-J1-PDC, and 997726-040-R-J2-PDC lines were cultured in 6A media, which includes advanced DMEM/F-12 (Thermo Fisher Scientific, cat. 12634028), 10 mM HEPES (Thermo Fisher Scientific, cat. 15630080), 1X GlutaMAX supplement (Thermo Fisher Scientific, cat. 35050061), 0.1 mg/mL primocin (InvivoGen, San Diego, CA, cat. ant-pm-2), 10% defined fetal bovine serum, heat inactivated (HyClone Laboratories Inc., Logan, UT, cat. SH30070.03HI), 50% L-WRN conditioned media (ATCC, cat. CRL-3276), 1.25 mM N-Acetyl-L-cysteine (Sigma-Aldrich, cat. A9165), 10 mM nicotinamide (Sigma-Aldrich, cat. N0636), 1X B-27 supplement (Thermo Fisher Scientific, cat. 17504044), 1X N-2 supplement (Thermo Fisher Scientific, cat. 17502048), and 10 microM Y-27632 dihydrochloride (Tocris Bioscience, Bristol, United Kingdom, cat. 1254). The 624824-186-R-J2-PDC line was cultured in 6C/Colon 1B media, which includes all 6A media components plus 50 ng/mL human EGF recombinant protein (Thermo Fisher Scientific, cat. PHG0311). […]

[1] = second compound 0.0316 µM, first compound 0.0316 µM
[2] = second compound 0.0316 µM, first compound 0.1 µM
[3] = second compound 0.0316 µM, first compound 0.316 µM
[4] = second compound 0.0316 µM, first compound 1 µM
[5] = second compound 0.0316 µM, first compound 3.16 µM
[6] = second compound 0.0316 µM, first compound 10 µM
[7] = second compound 0.1 µM, first compound 0.0316 µM
[8] = second compound 0.1 µM, first compound 0.1 µM
[9] = second compound 0.1 µM, first compound 0.316 µM
[10] = second compound 0.1 µM, first compound 1 µM
[11] = second compound 0.1 µM, first compound 3.16 µM
[12] = second compound 0.1 µM, first compound 10 µM
[13] = second compound 0.316 µM, first compound 0.0316 µM
[14] = second compound 0.316 µM, first compound 0.1 µM
[15] = second compound 0.316 µM, first compound 0.316 µM
[16] = second compound 0.316 µM, first compound 1 µM
[17] = second compound 0.316 µM, first compound 3.16 µM
[18] = second compound 0.316 µM, first compound 10 µM
[19] = second compound 1 µM, first compound 0.0316 µM
[20] = second compound 1 µM, first compound 0.1 µM
[21] = second compound 1 µM, first compound 0.316 µM
[22] = second compound 1 µM, first compound 1 µM
[23] = second compound 1 µM, first compound 3.16 µM
[24] = second compound 1 µM, first compound 10 µM
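Note: compound exposure lasted seven days before viability was read.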
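Throughout, for viability, T/C: percent of vehicle DMSO treated spheroid viability so 100% = untreated.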

CCCS(=O)(=O)Nc1ccc(F)c(C(=O)c2c[nH]c3ncc(-c4ccc(Cl)cc4)cc23)c1F + Cc1nc(NC(=O)N2CCCC2C(N)=O)sc1-c1ccnc(C(C)(C)C(F)(F)F)c1
IC50 (second compound 0.0316 µM): 6.36 µM
IC50 (second compound 0.1 µM): 6.49 µM
IC50 (second compound 0.316 µM): 5.57 µM
IC50 (second compound 1 µM): 5.52 µM
IC50 (second compound 3.16 µM): 4.6 µM
IC50 (second compound 10 µM): 0.0316 µM
viability, T/C [1]: 85.6%
viability, T/C [2]: 113%
viability, T/C [3]: 98.5%
viability, T/C [4]: 97.6%
viability, T/C [5]: 94.1%
viability, T/C [6]: 21.5%
viability, T/C [7]: 90.2%
viability, T/C [8]: 75.4%
viability, T/C [9]: 105%
viability, T/C [10]: 112%
viability, T/C [11]: 98.2%
viability, T/C [12]: 22.3%
viability, T/C [13]: 82%
viability, T/C [14]: 110%
viability, T/C [15]: 88.9%
viability, T/C [16]: 95.5%
viability, T/C [17]: 81.2%
viability, T/C [18]: 17.6%
viability, T/C [19]: 75.3%
viability, T/C [20]: 85%
viability, T/C [21]: 88%
viability, T/C [22]: 74.1%
viability, T/C [23]: 77.1%
viability, T/C [24]: 21.2%
viability, T/C (second compound 3.16 µM, first compound 0.0316 µM): 63.1%
viability, T/C (second compound 3.16 µM, first compound 0.1 µM): 52.7%
viability, T/C (second compound 3.16 µM, first compound 0.316 µM): 69%
viability, T/C (second compound 3.16 µM, first compound 1 µM): 65.5%
viability, T/C (second compound 3.16 µM, first compound 3.16 µM): 67.5%
viability, T/C (second compound 3.16 µM, first compound 10 µM): 22.1%
viability, T/C (second compound 10 µM, first compound 0.0316 µM): 36.9%
viability, T/C (second compound 10 µM, first compound 0.1 µM): 47.2%
viability, T/C (second compound 10 µM, first compound 0.316 µM): 54.2%
viability, T/C (second compound 10 µM, first compound 1 µM): 51.7%
viability, T/C (second compound 10 µM, first compound 3.16 µM): 54.4%
viability, T/C (second compound 10 µM, first compound 10 µM): 18.2%

CC(Cn1ccc(-c2ccc(C#N)c(Cl)c2)n1)NC(=O)c1cc(C(C)O)[nH]n1 (centres undefined) + COc1c(OCCCN2CCOCC2)ccc2c3n(c(=NC(=O)c4cnc(N)nc4)nc12)CCN3
IC50 (second compound 0.00316 µM): > 10 µM
IC50 (second compound 0.01 µM): > 10 µM
IC50 (second compound 0.0316 µM): > 10 µM
IC50 (second compound 0.1 µM): 1.02 µM
IC50 (second compound 0.316 µM): < 0.0316 µM
IC50 (second compound 1 µM): < 0.0316 µM
viability, T/C (second compound 0.00316 µM, first compound 0.0316 µM): 98%
viability, T/C (second compound 0.00316 µM, first compound 0.1 µM): 87.8%
viability, T/C (second compound 0.00316 µM, first compound 0.316 µM): 84.1%
viability, T/C (second compound 0.00316 µM, first compound 1 µM): 89.2%
viability, T/C (second compound 0.00316 µM, first compound 3.16 µM): 121%
viability, T/C (second compound 0.00316 µM, first compound 10 µM): 107%
viability, T/C (second compound 0.01 µM, first compound 0.0316 µM): 97.6%
viability, T/C (second compound 0.01 µM, first compound 0.1 µM): 95.2%
viability, T/C (second compound 0.01 µM, first compound 0.316 µM): 88.1%
viability, T/C (second compound 0.01 µM, first compound 1 µM): 77.2%
viability, T/C (second compound 0.01 µM, first compound 3.16 µM): 99.4%
viability, T/C (second compound 0.01 µM, first compound 10 µM): 78.7%
viability, T/C [1]: 75.8%
viability, T/C [2]: 61.2%
viability, T/C [3]: 88.5%
viability, T/C [4]: 79%
viability, T/C [5]: 89.1%
viability, T/C [6]: 67.1%
viability, T/C [7]: 40.6%
viability, T/C [8]: 57.2%
viability, T/C [9]: 54.6%
viability, T/C [10]: 49.9%
viability, T/C [11]: 41.2%
viability, T/C [12]: 33%
viability, T/C [13]: 36.6%
viability, T/C [14]: 35.6%
viability, T/C [15]: 29.5%
viability, T/C [16]: 36%
viability, T/C [17]: 33.9%
viability, T/C [18]: 30.8%
viability, T/C [19]: 35.8%
viability, T/C [20]: 39%
viability, T/C [21]: 43.6%
viability, T/C [22]: 39.9%
viability, T/C [23]: 31.4%
viability, T/C [24]: 28.9%
